Measurements as given in PubChem BioAssay AID330 (DTP/NCI, 2004).
“And” between values parts separate entries of the source, which are not always exact repeats. Identical values can stand only once. Inconclusive results and toxic doses are left out. How the source made its calls: active means survival T/C of 150% or more; inactive means T/C below 125% in these data.

System: P388 leukemia ip, CD2F1 mice, survival T/C
Test: NCI In Vivo Anticancer Drug Screen. Data for tumor model P388 Leukemia (intraperitoneal) in CD2F1 (CDF1) mice
Conditions: endpoint: median survival time, higher = longer survival
How it was run: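 Mice carrying the transplanted tumor received test compound or vehicle. Survival was recorded in each group, and the value is the treated-group measurement divided by that of the vehicle-treated control group.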

[1] = dose: 50.0 mg/kg/injection, schedule: Q01DX009 (ip), vehicle: saline with Tween-80
[2] = dose: 100.0 mg/kg/injection, schedule: Q04DX003 (ip), vehicle: saline

Measured: T/C

COc1ccc2[nH]c3c(C)c4cc[n+](CCCCCCCC[n+]5ccc6c(C)c7[nH]c8ccc(OC)cc8c7c(C)c6c5)cc4c(C)c3c2c1
inactive: dose: 0.78 mg/kg/injection, schedule: Q04DX003 (ip), vehicle: other 117 % of control | dose: 25.0 mg/kg/injection, schedule: Q04DX003 (ip), vehicle: other 122 % of control | dose: 50.0 mg/kg/injection, schedule: Q04DX003 (ip), vehicle: other 119 % of control

Cn1c(=O)[nH]c(=O)c2nc(-c3ccc(Cl)c(Cl)c3)cnc21
inactive: [1] 104 % of control | dose: 100.0 mg/kg/injection, schedule: Q01DX009 (ip), vehicle: saline with Tween-80 101 % of control | dose: 200.0 mg/kg/injection, schedule: Q01DX009 (ip), vehicle: saline with Tween-80 99 % of control

C/C(=C1/N=C(c2ccccc2)OC1=O)c1ccc(C)cc1
inactive: dose: 50.0 mg/kg/injection, schedule: Q01DX005 (ip), vehicle: Klucel (hydroxypropylcellulose) (HPC) 106 % of control | dose: 100.0 mg/kg/injection, schedule: Q01DX005 (ip), vehicle: Klucel (hydroxypropylcellulose) (HPC) 90 % of control | dose: 200.0 mg/kg/injection, schedule: Q01DX005 (ip), vehicle: Klucel (hydroxypropylcellulose) (HPC) 106 % of control

Cc1cc(=O)oc2cc(NC(=O)C(CCCN=C(N)N)NC(=O)OCc3ccccc3)ccc12 (configuration not stated)
inactive: dose: 50.0 mg/kg/injection, schedule: Q01DX005 (ip), vehicle: saline with Tween-80 97 % of control | dose: 100.0 mg/kg/injection, schedule: Q01DX005 (ip), vehicle: saline with Tween-80 98 % of control | dose: 200.0 mg/kg/injection, schedule: Q01DX005 (ip), vehicle: saline with Tween-80 94 % of control

NC(=O)N/N=C1/CCCCCC1(c1ccccc1)c1ccccc1
inactive: dose: 30.0 mg/kg/injection, schedule: Q01DX005 (ip), vehicle: Klucel (hydroxypropylcellulose) (HPC) 95 % of control | dose: 60.0 mg/kg/injection, schedule: Q01DX005 (ip), vehicle: Klucel (hydroxypropylcellulose) (HPC) 89 % of control | dose: 120.0 mg/kg/injection, schedule: Q01DX005 (ip), vehicle: Klucel (hydroxypropylcellulose) (HPC) 91 % of control

CCCCOCC(C)O (configuration not stated)
inactive: [2] 109 % of control | dose: 200.0 mg/kg/injection, schedule: Q04DX003 (ip), vehicle: saline 100 % of control | dose: 400.0 mg/kg/injection, schedule: Q04DX003 (ip), vehicle: saline 90 % of control

C/C(=N\NC(=S)N1CCN(C)CC1)c1ccccn1
inactive: dose: 25.0 mg/kg/injection, schedule: Q04DX003 (ip), vehicle: saline 104 % of control | dose: 50.0 mg/kg/injection, schedule: Q04DX003 (ip), vehicle: saline 107 % of control | [2] 101 % of control

C[C@@]1(CO)CCc2c(c3ccccc3oc2=O)O1
inactive: dose: 60.0 mg/kg/injection, schedule: Q01DX005 (ip), vehicle: saline with Tween-80 94 % of control | dose: 120.0 mg/kg/injection, schedule: Q01DX005 (ip), vehicle: saline with Tween-80 92 % of control | dose: 240.0 mg/kg/injection, schedule: Q01DX005 (ip), vehicle: saline with Tween-80 90 % of control

CCOC(=O)Nc1cc(N(C)CC(O)c2ccccc2)c(N)c(N)n1 (configuration not stated)
inactive: dose: 50.0 mg/kg/injection, schedule: Q01DX001 (ip), vehicle: saline with Tween-80 104 % of control | dose: 100.0 mg/kg/injection, schedule: Q01DX001 (ip), vehicle: saline with Tween-80 94 % of control | dose: 200.0 mg/kg/injection, schedule: Q01DX001 (ip), vehicle: saline with Tween-80 94 % of control

COC(=O)C(NC(=O)C(NC(=O)c1c2nc3c(C(=O)NC(C(=O)NC(C(=O)OC)C(C)C)C(C)OC(C)=O)ccc(C)c3oc-2c(C)c(=O)c1N)C(C)OC(C)=O)C(C)C (configuration not stated)
inactive: dose: 0.05 mg/kg/injection, schedule: Q01DX009 (ip), vehicle: water 107 % of control | dose: 0.1 mg/kg/injection, schedule: Q01DX009 (ip), vehicle: water 107 % of control | dose: 0.2 mg/kg/injection, schedule: Q01DX009 (ip), vehicle: water 100 % of control | dose: 0.4 mg/kg/injection, schedule: Q01DX009 (ip), vehicle: water 97 % of control | dose: 0.8 mg/kg/injection, schedule: Q01DX009 (ip), vehicle: water 100 % of control | dose: 1.6 mg/kg/injection, schedule: Q01DX009 (ip), vehicle: water 100 % of control and 88 % of control | dose: 3.2 mg/kg/injection, schedule: Q01DX009 (ip), vehicle: water 97 % of control | dose: 6.4 mg/kg/injection, schedule: Q01DX009 (ip), vehicle: water 97 % of control | dose: 12.8 mg/kg/injection, schedule: Q01DX009 (ip), vehicle: water 92 % of control

COCCOC(C)C(/C=N/N=C(N)N)=N/N=C(N)N (configuration not stated)
inactive: dose: 12.5 mg/kg/injection, schedule: Q01DX005 (ip), vehicle: saline 101 % of control | dose: 25.0 mg/kg/injection, schedule: Q01DX005 (ip), vehicle: saline 103 % of control | dose: 50.0 mg/kg/injection, schedule: Q01DX005 (ip), vehicle: saline 99 % of control and 101 % of control

CCCCCC(C)COS(=O)(=O)c1ccc([N+](C)(C)C)cc1 (configuration not stated)
inactive: dose: 12.5 mg/kg/injection, schedule: Q01DX009 (ip), vehicle: saline with Tween-80 102 % of control | dose: 25.0 mg/kg/injection, schedule: Q01DX009 (ip), vehicle: saline with Tween-80 103 % of control | [1] 105 % of control
